In data set [1] the test system is phosphorylated RNA polymerase II (pPolII). The experiment in a line: Flow cytometry of pPolII in lymphocytes (PBMC preparations). As to conditions: Module 1A, across all doses, Cycle 2 Day 1. The class given is in vivo, human. The method, then: Per-protocol ctDNA samples were taken in Module 1B-1 at screening, C1D1, C2D1 and on D1 of alternating cycles from Cycle 3; in Module 2A at screening, C1D1 and at either C2D1 (240 mg) or C2D15 (360 mg) for mutational analysis[24],[33], (Supplementary Information). pPolII in lymphocytes and pPolII and pCDK1/2/3 in core needle tissue samples from patients recruited to the paired biopsy cohort were evaluated for on-target pharmacodynamic analyses. […]
with the sponsor. All investigator sites attended the SRC so that updates on toxicity and MTD could be communicated immediately. No more than 6 participants could be recruited at a non-tolerated dose […]
A summary of DLTs by cohort is provided in Supplementary Table 5. […]
Cells were analysed cells on a BD Fortessa X20, acquiring 100,000 events. […]
analysed using FlowJo (Treestar) version 10.4.2 to report the median fluorescence intensity of staining […]
although not reaching statistical significance due to the low number of patients. pPolII was determined by a flow cytometry assay on samples of peripheral blood mononuclear cell (PBMC) preparations […]
H-scores for pre-dose and on-study biopsies and summary statistics for the observed H-score when stained for pCDK1/2/3 and pPolII are shown in Supplementary Table 11. Significance was calculated using Student’s one-tailed paired t-test, where the alternative hypothesis was that on-study samples had […]
A general note: Flow cytometry measures light scatter and fluorescence of single cells or particles in a stream.

Details of data set [2]: method as in ref IB. As to conditions: ref IB, cited from earlier work.
Another data set has as its system CYP2B6. Details: method as in ref IB. As to conditions: human microsomes; ref IB; cited from earlier work.
A further data set relates to CYP2C8. Details: method as in ref IB. As to conditions: human microsomes; ref IB; cited from earlier work.
Details of data set [3]: method as in ref IB. To be noted: rat microsomes; ref IB; cited from earlier work.
The next data set deals with dog. Details: method as in ref IB. As to conditions: oral 5, 15, and 20 mg/kg, ref IB; cited from earlier work.
The next data set deals with Ames test strains. The arrangement: method as in ref IB. As to conditions: up to the lower limit of toxicity; ref IB; cited from earlier work.
Data set [4] concerns tumour cell lines, including TNBC. Details: method as in ref Patel et al, 2018 Ainscow et al, 2018; Clark et al, 2017, Ali et al, 2018. To be noted: wide range of tumour cell lines, ref Patel et al, 2018 Ainscow et al, Clark et al, 2017, Ali et al; cited from earlier work.
The test system of data set [5] is phosphorylation of RNA Pol II, CDK1 and 2. Details: method as in ref IB. As to conditions: in vitro and in vivo, tumour and normal cells; ref IB; cited from earlier work.
On the set-up of data set [6]: method as in ref IB. To be noted: ref IB; cited from earlier work.
For data set [7], the system named is Han Wistar (Crl:WI [Han]) rats. As to conditions: cited from earlier work.
A further data set has as its system dogs. As to conditions: cited from earlier work; for AUC0-t: Dog, 20 mg/kg/day oral, ref IB.

The values below come from paper PMC10366102, “Dose escalation and expansion cohorts in patients with advanced breast cancer in a Phase I study of the CDK7-inhibitor samuraciclib” (Nature Communications, 2023).

Read-outs that look alike come from different tables or passages of the source. Where only a bound is given, the exact number is not on record here.

With `CC(C)c1cnn2c(NCc3ccccc3)cc(NC[C@H]3CCNC[C@@H]3O)nc12` [samuraciclib, Samuraciclib], the “Reduction of pPolII in lymphocytes” value in data set [1] is “approximately 30%”. For the same compound, the Oral bioavailability result in data set [2] (dog) is listed as “good oral bioavailability”. Also, in data set [2] (dogs), the “Apparent elimination half-life (T½)” value was 9.5 h, the Plasma clearance result is on record as “high” and the Volume of distribution entry is on record as “high volume of distribution”. Moreover, the IC50 (as a rule, the concentration that gives 50% inhibition) in the data set with CYP2B6 is more than 50 µM. Besides, the 50% inhibitory concentration (IC50) in the data set with CYP2C8 was more than 50 µM. In data set [3], the Intrinsic clearance result is “high”. Besides, the “Haemodynamic parameters, ECG parameters, body temperature” value with dog is “no effect”. Also, the “Mutations in five strains Ames test” value with Ames test strains was “no mutations”. The Cell growth inhibition entry in data set [4] is “broad activity”. The “Phosphorylation of RNA Pol II, CDK1 and 2” value in data set [5] is recorded as “inhibits the phosphorylation”. In data set [6], the Solubility result is on record as “pH-dependent solubility”. Further, the “Findings in 4-week oral gavage study” value in data set [7] (120 mg/kg/day, Han Wistar rats, ref IB) is “deaths and severe clinical”. Further, the “HNSTD (middle dose tested)” value in data set [7] (rat, in vivo) is 60 mg/kg. Further, in the data set with dogs (Female), the AUC0-t was 5010 ng·h/mL. Besides, in the data set on dogs (Male), the AUC0-t is 3880 ng·h/mL. In addition, the “Highest non-severely toxic dose (HNSTD)” value in the data set on dogs (dog, in vivo) is on record as 20 mg/kg/day.
